Data on twelve compounds can be found in patent US8846675B2, “N-linked heterocyclic receptor agonists for the treatment of diabetes and metabolic disorders” (Cymabay Therapeutics, Inc., priority 2007, dated 2014).

The target in this assay is T1, IC-GPCR2 (Homo sapiens, UniProt Q8TDV5).
T1 construct: expressed in transfected cells
T1 sequence (Q8TDV5 1-335 S309L): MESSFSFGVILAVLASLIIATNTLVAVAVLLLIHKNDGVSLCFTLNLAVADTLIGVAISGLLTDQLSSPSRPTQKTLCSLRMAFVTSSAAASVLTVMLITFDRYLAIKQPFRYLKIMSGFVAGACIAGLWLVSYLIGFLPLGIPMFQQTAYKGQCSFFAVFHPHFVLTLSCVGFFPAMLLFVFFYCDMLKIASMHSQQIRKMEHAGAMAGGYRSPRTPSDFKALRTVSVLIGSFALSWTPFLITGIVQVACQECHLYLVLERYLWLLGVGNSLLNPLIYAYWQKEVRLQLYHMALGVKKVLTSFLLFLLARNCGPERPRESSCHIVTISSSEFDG
In words: Stimulation of cAMP in CHO cell line stably expressing IC-GPCR2 (HTRF cAMP dynamic kit). In kind it is cell-based. Conditions: 3 μM compound; relative to maximal activity of 5-Ethyl-2-{4-[4-(4-tetrazol-1-yl-phenoxymethyl)-thiazol-2-yl]-piperidin-1-yl}-pyrimidine (=100%); IC-GPCR2 stably expressing CHO cells, 30 minutes. The method, then: This assay was developed using a stable cell line expressing IC-GPCR-2, generated as follows. IC-GPCR2 (Seq. ID No. 1) was cloned into Gateway pDEST 40vector (Invitrogen), using the Gateway cloning system (invitrogen) according to the manufacturers instructions. A stable cell line was generated by transfecting a 10 cm plate of CHO cells (source) with 8 ug of this construct using Transit-CHO transfection kit (Mirus). CHO cells were plated the day prior to transfection at a density of 3,000,000 cells/plate. Clones were selected using the antibiotic G418 at 500 ug/ml. 23 clones were picked and assayed for the expression of the receptor by measuring changes in intracellular cAMP levels in response to an IC-GPCR2 agonist (Arena 51).
To measure cAMP activity in response to IC-GPCR2 agonist, the clones were plated in 96 well plates at 17500 cells per well. On the day after plating, cells were incubated with the IC-CPCR2 agonist at […] for 30 minutes in Ham's F12 Media (Gibco) with 0.04% DMSO. cAMP was measured using the cAMP dynamic kit from C is Bio (Bedford, Mass.) according to the manufacturers instructions. Briefly, cells were lysed, and cAMP levels determined by competitive immunoassay using D2 labeled cAMP, and europium cryptate tagged anti cAMP antibody. When in close proximity, the D2 and europium cryptate undergo fluorescence resonance energy transfer (FRET), which is measured as a fluorescence ratio (665 nm/620 nm). Unlabelled cAMP in the cell lysatc competed with the D2 labeled cAMP for the europium crypate labeled antibody. The resulting decrease in FRET signal corresponded to intracellular cAMP levels. Fluorescence was read on a BMG Labtech PHERAstar, software version 1.50.
The clone with the greatest response to IC-GPCR2 agonist was selected for the screening assay.
Compounds were dissolved in 100% DMSO to a concentration of […] to provide stock solutions. To determine activity against IC-GPCR2, compounds were incubated with IC-GPCR2 stably expressing cells (described above), at 6-8 concentrations ranging from 0.00003 to 10 micromolar, in 96 well plates, in 50 ul of Hams F12 media for 30 minutes. Cells were plated at 17500 cells per well 1 day before running the assay. All compounds were also screened against the parental CHO cells. cAMP was measured using the cAMP dynamic kit from Cis Bio (Bedford, Mass.), according to the manufacturer's instructions. Briefly, cells were lysed and cAMP levels determined by competitive immunoassay using D2 labeled cAMP, and europium cryptate tagged anti cAMP antibody. When in close proximity, the D2 and europium cryptate undergo fluorescence resonance energy transfer (FRET), which is measured as a fluorescence ratio (665 nm/620 nm). Unlabelled cAMP in the cell lysate competed with the D2 labeled cAMP for the europium crypate labeled antibody. The resulting decrease in FRET signal corresponded to intracellular cAMP levels
To determine percent activity for a tested compound, the FRET signal value obtained at a particular concentration are compared to the Maximal FRET signal value obtained for 5-Ethyl-2-{4-[4-(4-tetrazol-1-yl-phenoxymethyl)-thiazol-2-yl]-piperidin-1-yl}-pyrimidine. The maximal activity of 5-Ethyl-2-{4-[4-(4-tetrazol-1-yl-phenoxymethyl)-thiazol-2-yl]-piperidin-1-yl}-pyrimidine is designated as 100% activity. Typically, the concentration of 5-Ethyl-2-{4-[4-(4-tetrazol-1-yl-phenoxymethyl)-thiazol-2-yl]-piperidin-1-yl}-pyrimidine in the assay was approximately 0.1 μM. The synthesis of 5-Ethyl-2-{4-[4-(4-tetrazol-1-yl-phenoxymethyl)-thiazol-2-yl]-piperidin-1-yl}-pyrimidine is disclosed in co-owned pending U.S. patent application Ser. No. 11/964,461, herein incorporated by reference. Activities of compounds that were tested are shown in Table 1 below and are expressed as % activity at 3 μM compound compared to the maximal activity of 5-Ethyl-2-{4-[4-(4-tetrazol-1-yl-phenoxymethyl)-thiazol-2-yl]-piperidin-1-yl}-pyrimidine at 3 μM.
For the compound `Fc1cc(-n2cnnn2)ccc1OCc1cnn([C@H]2CCN(c3ncc(C(F)(F)F)cn3)C[C@@H]2F)n1` (racemic) [Example 34, 2-((trans)-3-Fluoro-4-(4-((2-fluoro-4-(1H-tetrazol-1-yl)phenoxy)methyl)-2H-1,2,3-triazol-2-yl)piperidin-1-yl)-5-(trifluoromethyl)pyrimidine], the “% activity at 3 μM” value is reported as 87.61%. As for `CCc1cnc(N2CCC(n3ncc(COc4ccc(-n5cnnn5)nc4)n3)CC2)nc1` [Example 32, 2-(4-(4-((6-(1H-tetrazol-1-yl)pyridin-3-yloxy)methyl)-2H-1,2,3-triazol-2-yl)piperidin-1-yl)-5-ethylpyrimidine], the “% activity at 3 μM” value is 75.55%. The figure for `Clc1cnc(N2CCC(n3ncc(COc4ccc(-n5cnnn5)cc4)n3)CC2)nc1` [Example 88, 2-(4-(4-((4-(1H-Tetrazol-1-yl)phenoxy)methyl)-2H-1,2,3-triazol-2-yl)piperidin-1-yl)-5-chloropyrimidine] is 60.96%. The figure for `CC(C)(C)OC(=O)N1CCC(n2cc(COc3ccc(-n4cnnn4)cc3)cn2)CC1` [Example 8, 4-[4-(4-Tetrazol-1-yl-phenoxymethyl)-pyrazol-1-yl]-piperidine-1-carboxylic acid tert-butyl ester] is 77.16%; for `Clc1cnc(N2CCC(n3ncc(COc4ccc(-n5ccnn5)cc4)n3)CC2)nc1` [Example 92, 2-(4-(4-((4-(1H-1,2,3-Triazol-1-yl)phenoxy)methyl)-2H-1,2,3-triazol-2-yl)piperidin-1-yl)-5-chloropyrimidine] it is 58.28%. For `CC(C)(C)OC(=O)N1CCC(n2cc(COc3ccc(S(C)(=O)=O)cc3)nn2)CC1` [Example 21, 4-[4-(4-Methanesulfonyl-phenoxymethyl)[1,2,3]triazol-1-yl]-piperidine-1-carboxylic acid tert-butyl ester], the “% activity at 3 μM” value was determined as 63.66%.

Take `CCc1cnc(N2CC[C@H](n3ncc(COc4ccc(-n5cnnn5)cc4F)n3)[C@@H](F)C2)nc1` (racemic) [Example 38, 5-Ethyl-2-((trans)-3-fluoro-4-(4-((2-fluoro-4-(1H-tetrazol-1-yl)phenoxy)methyl)-2H-1,2,3-triazol-2-yl)piperidin-1-yl)pyrimidine]: the “% activity at 3 μM” value is given as 85.32%.

On to `CS(=O)(=O)c1ccc(OCc2cnn(C3CCN(c4ncc(Cl)cn4)CC3)n2)cc1` [Example 95, 5-Chloro-2-(4-(4-((4-(Methylsulfonyl)phenoxy)methyl)-2H-1,2,3-triazol-2-yl)piperidin-1-yl)pyrimidine], for which the “% activity at 3 μM” value came to 51.03%. As for `CCc1cnc(N2CCC(n3cc(COc4ccc(S(C)(=O)=O)cc4F)c(C(F)(F)F)n3)CC2)nc1` [Example 67, 5-Ethyl-2-(4-(4-((2-fluoro-4-(methylsulfonyl)phenoxy)methyl)-3-(trifluoromethyl)-1H-pyrazol-1-yl)piperidin-1-yl)pyrimidine], the figure is 57.87%; as for `CC(C)(C)OC(=O)N1CCC(n2ccc(COc3ccc(-n4cnnn4)cc3F)n2)CC1` [Example 6, 4-[3-(2-Fluoro-4-tetrazol-1-yl-phenoxymethyl)-pyrazol-1-yl]-piperidine-1-carboxylic acid tert-butyl ester], 79.51%; as for `FC(F)(F)c1cnc(N2CCC(n3ncc(COc4ccc(-n5cnnn5)nc4)n3)CC2)nc1` [Example 22, 2-{4-[4-(6-Tetrazol-1-yl-pyridin-3-yloxymethyl)-[1,2,3]triazol-2-yl]-piperidin-1-yl}-5-trifluoromethyl-pyrimidine], 78.44%. Take `CCOC(=O)CCCc1cnc(N2CCC(n3ncc(COc4ccc(-n5cnnn5)nc4)n3)CC2)nc1` [Example 58, Ethyl 4-(2-(4-(4-((6-(1H-tetrazol-1-yl)pyridin-3-yloxy)methyl)-2H-1,2,3-triazol-2-yl)piperidin-1-yl)pyrimidin-5-yl)butanoate]: the “% activity at 3 μM” value is recorded as 79.55%.
